# Measured values: patent publication US20070117203A1, “Modulation of stem and progenitor cell growth by oscillatory fluid flow” (priority 2005, published 2007)
# System: Marrow Stromal Cells (MSCs)
# Test: Intracellular calcium response of MSCs to oscillatory fluid flow in the presence of calcium channel blockers
# Details: control 67.1±11.2
# Procedure: Calcium Imaging: Intracellular levels of Ca^2+ were quantified using a ratiometric imaging technique with the Ca^2+ sensitive dye Fura-2 Acetoxymethyl ester (Fura-2 AM). […] The ratio of the emission intensities F340/F380 is a quantitative measurement of intracellular calcium [Ca^2+]i.
# Cells were cultured on UV transparent quartz slides for 3 days. Prior to exposure to OFF, cells were washed with PBS, incubated with 10 μM Fura-2 AM in A-MEM and 2% FBS for 30 min at 37° C., and then washed again with PBS. Following Fura-2 loading, the slides were mounted in a parallel plate flow chamber, and then fixed to the stage of a Nikon TE300 epi-fluorescent microscope (Technical Instruments SF, Burlingame, Calif.). The setup was left undisturbed for 30 min, during which the cells were perfused with media at 0.05 ml/min. Cells were then subjected to 3 minutes of OFF at 1 Hz with peak shear stress of 20 dynes/cm^2. […] Ratio images were recorded and analyzed using image analysis software (Metafluor; Universal Imaging, West Chester, Pa.). […]
# Data analysis: Calcium imaging data was analyzed using the Rainflow cycle counting numerical procedure. This method identifies oscillations in the time history data and is used to quantify [Ca^2+]i responses from background noise. Calcium imaging data is expressed as the fraction of cells responding i SE and mean change in [Ca^2+]i±SE. […]
Structure (SMILES),"percentage of cells that responded to OFF with a change in intracellular calcium (10 μM, stretch activated channel blocker, not different from control) [%]","percentage of cells that responded to OFF with a change in intracellular calcium (50 nM, empties intracellular calcium stores, significant decrease (p<0.05)) [%]"
[Cl][Gd]([Cl])[Cl] [gadolinium chloride],61.1±14.7,–
C/C=C(/C)C(=O)O[C@H]1C(C)=C2[C@H]([C@@H]1OC(=O)CCCCCCC)[C@@](C)(OC(C)=O)C[C@H](OC(=O)CCC)[C@@]1(O)[C@H]2OC(=O)[C@@]1(C)O [Thapsigargin],–,0±0
